Results on 13 compounds are retold here after US9751858B2, “3-heteroaroylamino-propionic acid derivatives and their use as pharmaceuticals” (SANOFI, priority 2011, dated 2017).

SMILES strings stand for the structures.

For one experiment, the target named is T1, Recombinant human cathepsin A (Homo sapiens, UniProt P10619).
T1 construct: Recombinant human cathepsin A (residues 29-480, with a C-terminal 10-His tag); 10-His (C); purchased R&D Systems 1049-SE
T1 sequence (P10619 29-326 limits assumed): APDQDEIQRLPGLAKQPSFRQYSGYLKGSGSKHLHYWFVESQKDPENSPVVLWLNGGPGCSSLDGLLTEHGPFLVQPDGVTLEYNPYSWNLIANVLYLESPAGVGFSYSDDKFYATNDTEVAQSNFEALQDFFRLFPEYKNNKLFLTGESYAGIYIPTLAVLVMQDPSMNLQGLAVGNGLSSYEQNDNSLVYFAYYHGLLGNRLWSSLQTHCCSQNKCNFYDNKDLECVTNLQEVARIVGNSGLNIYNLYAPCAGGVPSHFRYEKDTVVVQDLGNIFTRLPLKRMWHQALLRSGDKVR
T1 sequence (P10619 327-480 limits assumed): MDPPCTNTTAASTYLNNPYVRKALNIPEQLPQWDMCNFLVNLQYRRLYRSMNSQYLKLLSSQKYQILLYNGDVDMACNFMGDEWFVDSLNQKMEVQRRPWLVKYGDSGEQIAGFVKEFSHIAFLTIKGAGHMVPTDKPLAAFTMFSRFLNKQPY
The experiment is described as follows: Cathepsin A inhibitory activity. It counts as biochemical. Conditions: activated recombinant human cathepsin A 833 ng/ml, Bodipy FL-labeled bradykinin 2 μM, pH 5.5, 15 min room temperature. In short, it runs like this: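 Cathepsin A activated by cathepsin L (15 min, 37 °C, pH 6.0), then preincubated 15 min at room temperature with compound in 25 mM MES pH 5.5, 5 mM DTT. Bodipy FL-bradykinin cleavage ran 15 min at room temperature; substrate and product separated by microfluidic capillary electrophoresis, turnover from peak areas.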
For orientation: IC50 means the concentration at which inhibition is half-maximal. With `Cc1ccccc1[C@H](CC(=O)O)NC(=O)c1cc(S(=O)(=O)N(C)C)oc1C` [Example 46, (S)-3-[(5-Dimethylsulfamoyl-2-methyl-furan-3-carbonyl)-amino]-3-o-tolyl-propionic acid], the IC50 was over 10000 nM.

For the compound `O=C(O)C[C@H](NC(=O)c1noc(-c2cccc(F)c2F)n1)c1ccccc1F` [Example 43, (S)-3-{[5-(2,3-Difluoro-phenyl)-[1,2,4]oxadiazole-3-carbonyl]-amino}-3-(2-fluoro-phenyl)-propionic acid], the IC50 was 107 nM.

`O=C(O)C[C@H](NC(=O)c1nc(-c2ccccc2)n(-c2ccccc2)n1)c1ccccc1F` [Example 90, (S)-3-[(1,5-Diphenyl-1H-[1,2,4]triazole-3-carbonyl)-amino]-3-(2-fluoro-phenyl)-propionic acid]: the IC50 worked out at 353 nM.

`CC(C)c1oc(-c2ccccc2)nc1C(=O)N[C@@H](CC(=O)O)c1ccccc1Cl` [Example 67, (S)-3-(2-Chloro-phenyl)-3-[(5-isopropyl-2-phenyl-oxazole-4-carbonyl)-amino]-propionic acid]: the IC50 amounted to 1400 nM.

With `Cc1oc(-c2ccccc2)nc1C(=O)N[C@@H](CC(=O)O)c1ccccc1Cl` [Example 32, (S)-3-(2-Chloro-phenyl)-3-[(5-methyl-2-phenyl-oxazole-4-carbonyl)-amino]-propionic acid], the IC50 amounted to 1210 nM.

`Cc1ccccc1[C@H](CC(=O)O)NC(=O)c1nn(C)cc1NS(=O)(=O)CCc1ccccc1` [Example 121, (S)-3-{[1-Methyl-4-(2-phenyl-ethanesulfonylamino)-1H-pyrazole-3-carbonyl]-amino}-3-o-tolyl-propionic acid]: the IC50 was over 10000 nM.

As for `O=C(O)C[C@H](NC(=O)c1nc(-c2ccccc2)n(-c2ccccc2)n1)c1ccccc1Cl` [Example 106, (S)-3-(2-Chloro-phenyl)-3-[(1,5-diphenyl-1H-[1,2,4]triazole-3-carbonyl)-amino]-propionic acid], the IC50 came to 119 nM.

As to `O=C(O)C[C@H](NC(=O)c1nc(-c2ccccc2)oc1C(F)(F)F)c1ccc(Cl)cc1Cl` [Example 123, (S)-3-(2,4-Dichloro-phenyl)-3-[(2-phenyl-5-trifluoromethyl-oxazole-4-carbonyl)-amino]-propionic acid], the IC50 turned out to be 14400 nM.

Regarding `CCCC1CCCCN1C(=O)c1cc(C(=O)N[C@@H](CC(=O)O)c2ccccc2)nn1CC` (stereo partly drawn) [Example 100, (S)-3-{[1-Ethyl-5-(2-propyl-piperidine-1-carbonyl)-1H-pyrazole-3-carbonyl]-amino}-3-phenyl-propionic acid], the IC50 amounted to 4750 nM.

For the compound `Cc1cccc([C@H](CC(=O)O)NC(=O)c2nc(-c3ccccc3F)oc2C)c1` [Example 27, (S)-3-{[2-(2-Fluoro-phenyl)-5-methyl-oxazole-4-carbonyl]-amino}-3-m-tolyl-propionic acid], the IC50 worked out at 3490 nM.

With `Cc1cccc([C@H](CC(=O)O)NC(=O)CCc2nc(-c3ccccc3F)no2)c1` [Example 50, (S)-3-{3-[3-(2-Fluoro-phenyl)-[1,2,4]oxadiazol-5-yl]-propionylamino}-3-m-tolyl-propionic acid], the IC50 is over 10000 nM.

Take `O=C(O)C[C@H](NC(=O)c1noc(-c2ccccc2F)n1)c1ccccc1F` [Example 17, (S)-3-(2-Fluoro-phenyl)-3-{[5-(2-fluoro-phenyl)-[1,2,4]oxadiazole-3-carbonyl]-amino}-propionic acid]: the IC50 was over 10000 nM.

The next experiment concerns platelet aggregation.
Assay: not given
Particulars: hypertensive animals; H. Ostrowska et al., J. Cardiovasc. Pharmacol. 45 (2005); cited from earlier work.
Regarding `CC[C@@H](C)[C@@H](O)[C@H](C)C(=O)[C@H](C)/C=C(\C)C[C@H](C)[C@@H]1OC(=O)[C@H]1CC` [ebelactone B], the platelet aggregation entry is “suppresses platelet aggregation”.
